Data published in paper PMC8967716, “Inhibition of calcium-triggered secretion by hydrocarbon-stapled peptides” (Nature, 2022).
Several values for one entry are separate records, joined by “and”; a condition that tells them apart may be missing. Equal entries are not always repeated. Positions of bridges follow the written chain, without caps; N, C: chain ends. Non-standard residues stand in square brackets, D forms with d. Residues, ends and D or L forms follow the SMILES beside them. S5 = C=CCCC[C@](C)(N)C(=O)O

Molecular target: T1, neuronal SNAREs and Syt1(QM) (Rattus norvegicus, UniProt P21707, E295A/R281A/R398A/R399A/Y338W)
T1 construct: made in house
T1 sequence (P21707 whole entry R281A/E295A/Y338W/R398A/R399A): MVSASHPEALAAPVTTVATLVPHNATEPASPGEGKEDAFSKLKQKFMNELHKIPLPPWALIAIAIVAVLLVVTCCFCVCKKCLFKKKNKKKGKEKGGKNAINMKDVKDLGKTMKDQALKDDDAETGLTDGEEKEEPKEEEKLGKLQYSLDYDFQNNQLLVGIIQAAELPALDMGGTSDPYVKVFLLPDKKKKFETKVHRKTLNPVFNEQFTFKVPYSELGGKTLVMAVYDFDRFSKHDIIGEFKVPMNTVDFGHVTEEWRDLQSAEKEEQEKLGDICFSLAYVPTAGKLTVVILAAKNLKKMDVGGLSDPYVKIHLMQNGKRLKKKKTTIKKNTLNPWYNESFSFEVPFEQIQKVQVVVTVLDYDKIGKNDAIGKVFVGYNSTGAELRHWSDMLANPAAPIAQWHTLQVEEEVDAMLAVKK
Assay: Single-vesicle content mixing assay, neuronal SNAREs and Syt1(QM)
Format: biochemical

[1] = 10 μM SP9, each value one repeat experiment
[2] = 500 μM Ca2+, 10 μM SP9, each value one repeat experiment

## CC[C@H](C)[C@H](NC(=O)[C@]1(C)CCCC=CCCC[C@](C)(NC(=O)[C@H](CCC(=O)O)NC(=O)[C@H](CCC(=O)O)NC(C)=O)C(=O)N[C@@H](CCCCN)C(=O)N[C@@H](CC(=O)O)C(=O)N[C@@H](C)C(=O)N1)C(=O)N[C@@H](CCCNC(=N)N)C(=O)N[C@@]1(C)CCCC=CCCC[C@@](C)(C(=O)N[C@@H](CC(=O)O)C(=O)N[C@@H](CCC(=O)O)C(=O)N[C@@H](CCC(N)=O)C(=O)N[C@@H](CS)C(N)=O)NC(=O)[C@H](CCSC)NC(=O)[C@H](C(C)C)NC(=O)[C@H](CC(C)C)NC1=O [SP9] (Ac-EE[S5]KDA[S5]IR[S5]LVM[S5]DEQC-NH2; staple 3-7, 10-14)
[1]
  Ca2+ independent fusion per sec (average probability): 0.0007051 and 0.0008431 and 0.0008917
  Vesicle association: 67 and 40 and 70
[2]
  Ca2+ triggered fusion accumulative probability (within 1 min): 0.0513 and 0.04654 and 0.06303
  Ca2+ triggered fusion amplitude (first 1-sec time bin): 0.004413 and 0.005288 and 0.004669
SP9 vs no peptide
  effect on Ca2+-independent or Ca2+-triggered fusion with Syt1(QM): little effect
